The record followed here is US11078193B2 (priority 2014, dated 2021).

One data set deals with HBV. Put plainly: anti HBV activity, HepG2.117 inducibly HBV producing cell line (Tet-off), intracellular HBV DNA by realtime PCR. The class given is cell-based. As to conditions: Hepatitis B virus, 72 h, HepG2.117 cells, 3 days of treatment.
The nature of data set [1]: Cytotoxicity, HepG2 cells, Resazurin assay. The data set is classed as cell-based. Conditions: human.

The structures appear in SMILES notation.

Broadly, the EC50 is the concentration that produces a half-maximal response. Read a low EC50 as a more potent agent. One may read the CC50 as the concentration at which the toxic effect on the cells reaches its halfway point. Lower therefore signals harm at low concentration. `CC[C@@H](C)NS(=O)(=O)c1cn(C)c(C(=O)Nc2ccnc(C#N)c2)c1Cl` [Compound 72, 3-chloro-N-(2-cyano-4-pyridyl)-1-methyl-4-[[(1R)-1-methylpropyl]-sulfamoyl]pyrrole-2-carboxamide] returned an EC50 in the data set on HBV of 100 nM. The molecule also returned a CC50 at 4 days in data set [1] above 25000 nM.
`C[C@@H](NS(=O)(=O)c1cn(C)c(C(=O)Nc2ccnc(C(F)(F)F)c2F)c1Cl)C(F)(F)F` [Compound 56, 3-chloro-N-[3-fluoro-2-(trifluoromethyl)-4-pyridyl]-1-methyl-4-[[(1R)-2,2,2-trifluoro-1-methyl-ethyl]sulfamoyl]pyrrole-2-carboxamide] registered an EC50 in the data set on HBV of 50 nM. In data set [1], this molecule displayed a 50% cytotoxic concentration (CC50) at 4 days above 25000 nM.
On the same counts, the results for `C[C@@H](NS(=O)(=O)c1cn(C)c(C(=O)Nc2cnc(F)c(F)c2)c1Cl)C(F)(F)F` [Compound 57, 3-chloro-N-(5,6-difluoro-3-pyridyl)-1-methyl-4-[[(1R)-2,2,2-trifluoro-1-methyl-ethyl]sulfamoyl]pyrrole-2-carboxamide] are 60 nM and above 25000 nM.
For `CC[C@@H](C)NS(=O)(=O)c1cn(C)c(C(=O)Nc2ccnc(C(F)(F)F)c2)c1Cl` [Compound 70, 3-chloro-1-methyl-4-[[(1R)-1-methylpropyl]sulfamoyl]-N-[2-(trifluoromethyl)-4-pyridyl]pyrrole-2-carboxamide], in that order: 150 nM and above 25000 nM.
`C[C@@H](NS(=O)(=O)c1cn(C)c(C(=O)Nc2c(Cl)c(F)nc(F)c2Cl)c1Cl)C(F)(F)F` [Compound 186, 3-chloro-N-(3,5-dichloro-2,6-difluoro-4-pyridyl)-1-methyl-4-[[(1R)-2,2,2-trifluoro-1-methyl-ethyl]sulfamoyl]pyrrole-2-carboxamide] showed an EC50 in the data set with HBV of 10500 nM. The CC50 at 4 days in data set [1] was above 25000 nM.
On the same counts, the results for `Cn1cc(S(=O)(=O)NC2(C(F)(F)F)CCC2)c(F)c1C(=O)Nc1ccnc(C#N)c1` [Compound 123, N-(2-cyano-4-pyridyl)-3-fluoro-1-methyl-4-[[1-(trifluoromethyl)cyclobutyl]sulfamoyl]pyrrole-2-carboxamide] are 10 nM and above 25000 nM.
Consider `C[C@@H](NS(=O)(=O)c1cn(C)c(C(=O)Nc2ccc(F)c(Cl)n2)c1Cl)C(F)(F)F` [Compound 75, 3-chloro-N-(6-chloro-5-fluoro-2-pyridyl)-1-methyl-4-[[(1R)-2,2,2-trifluoro-1-methyl-ethyl]sulfamoyl]pyrrole-2-carboxamide], for which a half-maximal effect in the data set on HBV (EC50) was put at 60 nM. Further, the CC50 at 4 days in data set [1] was above 25000 nM.
Take `C[C@@H](NS(=O)(=O)c1cc(C(=O)Nc2ccnc(Cl)c2)n(C)c1)C(C)(F)F` [Compound 103, N-(2-chloro-4-pyridyl)-4-[[(1R)-2,2-difluoro-1-methyl-propyl]sulfamoyl]-1-methyl-pyrrole-2-carboxamide]: the EC50 in the data set on HBV turned out to be 140 nM. Moreover, the CC50 at 4 days in data set [1] was above 25000 nM.
On the same counts, the results for `CC[C@@H](C)NS(=O)(=O)c1cn(C)c(C(=O)Nc2ccnc(Cl)c2)c1F` [Compound 69, N-(2-chloro-4-pyridyl)-3-fluoro-1-methyl-4-[[(1R)-1-methylpropyl]sulfamoyl]pyrrole-2-carboxamide] are 30 nM and above 25000 nM.
`Cn1cc(S(=O)(=O)NC2(C(F)(F)F)CCC2)c(F)c1C(=O)Nc1ccnc(C(F)F)c1` [Compound 119, N-[2-(difluoromethyl)-4-pyridyl]-3-fluoro-1-methyl-4-[[1-(trifluoromethyl)cyclobutyl]sulfamoyl]pyrrole-2-carboxamide] returned an EC50 with HBV of 5 nM. This molecule also came in with a CC50 at 4 days in data set [1] above 25000 nM.
For `Cn1cc(S(=O)(=O)NC2(C(F)(F)F)CCC2)c(Cl)c1C(=O)Nc1ccnc(Br)c1` [Compound 110, N-(2-bromo-4-pyridyl)-3-chloro-1-methyl-4-[[1-(trifluoromethyl)cyclobutyl]sulfamoyl]pyrrole-2-carboxamide], in that order: 20 nM and above 25000 nM.
